The test system of series [1] is IgE-mediated auricle edema. The series is described as follows: Auricle edema in experimental atopic dermatitis model (anti-DNP IgE sensitization, DNFB elicitation). Type of series: in vivo, Balb/c mice. Particulars: Compound Nos. 8 and 10 60 mg/kg s.c., prednisolone 10 mg/kg i.p. As to the method:
Intravenous injection of an anti-2,4-dinitrophenol (DNP) antibody (anti-DNP Ab, monoclonal IgE Ab; its antibody titer was 1 : 512 to 1 : 1024 by a rat heterologous passive cutaneous anaphylaxis reaction using a Wister rat) into a tail vein of female Balb/c mice (7-week old, body weight: 17 to 20 g, purchased from JAPAN SLC, Inc.) at a dose of […] per animal raised passive sensitization. Twenty four hours post-sensitization, 0.1% 2,4-dinitrofluorobenzene (DNFB; Nacalai Tesque, Inc.) in ethanol was painted onto both sides of a pair of mouse auricles at a dose of 10 µL per each side for elicitation.
Fresh unsensitized mice were painted with 0.1% DNFB in ethanol onto their ear in the same manner as aforementioned and served as a control group. Not only immediately prior to elicitation but also 1 hour, 5 hours, daily between Days 1 and 14, and on Day 16 post-elicitation, ear thickness was measured using a dial thickness gauge (Peacock Co.). Each degree of auricle edemas was calculated: Auricular Edema (µm)=(Ear Thickness Post-Elicitation, µm) - (Ear Thickness immediately prior to Elicitation, µm) [formula]
Balb/c mice were passively sensitized with anti-DNP IgE Ab in the same manner as in Example 1. Twenty four hours later, 0.1% DNFB in ethanol was painted onto both sides of a pair of mouse auricles at a dose of 10 µL per each side for elicitation.
Immediately prior to elicitation, 1 hour and on Day 1 post-elicitation, auricle thickness was measured in the same manner as in Example 1. Each therapeutic efficacy is recorded as a percent inhibition wherein the "auricle edema (untreated group)" is used as a control. Auricle Edema Inhibition (%) = [ 1 -(Auricle Edema (Treated Group))/(Auricle Edema (Untreated Group))] × 100 (%) [formula]
Mice were sensitized with anti-DNP IgE Ab and then elicited by painting 0.1% DNFB in ethanol onto both sides of a pair of mouse auricles at a dose of 10 µL per each side 24 hours post-sensitization in the same manner as in Example 1. […] Immediately prior to elicitation, and on Day 7 post-elicitation, auricle thickness was similarly measured. Each therapeutic efficacy is recorded as a percent inhibition wherein the auricle edema in the untreated group is used as a control.
Mice were sensitized with anti-DNP IgE Ab and then elicited by painting 0.1% DNFB in ethanol onto both sides of a pair of mouse auricles at a dose of 10 µL per each side 24 hours post-sensitization in the same manner as in Example 1. […] Immediately prior to elicitation, and on Day 7 post-elicitation, auricle thickness was similarly measured. Each therapeutic efficacy is recorded as a percent inhibition wherein the auricle edema (untreated group) is used as a control.
Mice were sensitized with anti-DNP IgE Ab and then elicited by painting 0.1% DNFB in ethanol onto both sides of a pair of mouse auricles at a dose of 10 µL per each side 24 hours post-sensitization in the same manner as in Example 1. […] Immediately prior to elicitation, at 1 and 4 hours and on Days 1, 3 and 7 post-elicitation, auricle thickness was similarly measured. From each auricle edema (µm) based on the auricle thickness immediately prior to elicitation, especially a prophylactically therapeutic efficacy of the test compound was evaluated.
Mice were sensitized with anti-DNP IgE Ab and then elicited by painting 0.1% DNFB in ethanol onto both sides of a pair of mouse auricles at a dose of 10 µL per each side 24 hours post-sensitization in the same manner as in Example 1. A solution of a test metalloproteinase inhibitor (Compound No. 8; 50 µg/ear/dose, twice a day) in ethanol was painted onto both sides of a pair of the mouse auricles 1 hour pre-elicitation, 0.25, 3, 4, 5 and 6 days post-elicitation (5 animals per group). Immediately prior to elicitation, at 0.5, 1 and 4 hours and on Days 1, 3 and 7 post-elicitation, auricle thickness was similarly measured. Each amount of auricle edemas was calculated (average± standard deviation). […]

The nature of series [2]: Mouse body weight gain (side-effect index). It counts as in vivo, mice. Particulars: average ± standard deviation; once a day Days 0-5; Compound No. 8 or 10 60 mg/kg s.c., prednisolone 10 mg/kg i.p. The method, then: Next the mice were measured for their body weight.
The test system of series [3] is Experimental Bronchial Asthma Model. As to the kind of experiment: Experimental bronchial asthma model (ovalbumin-sensitized, airway resistance and asthmatic death). It counts as in vivo, Guinea pigs. To be noted: for % Survival: asthmatic death within several minutes after elicitation.
Procedure: Guinea pigs (female, Std:Hartley, 3 weeks old, 200 to 250 g) were individually housed in a plastic chamber (width, 200 mm; depth, 300 mm; height, 167 mm). Aqueous ovalbumin (10 mg/mL) was administered to the guinea pigs once a day for sensitization by 10 min. inhalation with a nebulizer (5B, Nippon Shoji K.K.: flow rate, 6 L/min.) at a dose of 10 mg/mL during 8 cosecutive days. On Day 7 after the final sensitization, the guinea pigs were housed in a plastic chamber and inhaled using a nebulizer with a solution of ovalbumin (10 mg/mL) in physiological saline for 1 min. for elicitation (Matsumoto, T., et al., The Journal of Pharmacology and Experimental Therapeutics, 269: 1236-1244, 1994). The number of animals employed in the experiment was set to the extent there are at least 6 as individuals escaping asthmatic death. A solution of a test metalloproteinase inhibitor (Compound No. 8, 15 mg/kg) in water for injection was administered subcutaneously twice, i.e., 24 hours and 2 hours prior to elicitation. Similarly, the solvent alone was also administered to a negative control group. A suspension of prednisolone (10 mg/kg) in 0.5% aqueous methyl cellulose was administered orally twice, i.e., 24 hours and 2 hours prior to elicitation. Similarly, the solvent alone was also administered to another control group.
The evaluation for efficacies was conducted in terms of airway resistance. For this purpose, an apparatus dedicated to the measurement of airway resistance (K.K. Medical Agent) was employed. Measurement includes setting a guinea pig in a test chamber under a not-anesthetized condition, applying sinusoidal pressure waves of 30 Hz components to a part below the neck of the animal from the back side of the chamber, measuring respiratory waves of 30 Hz components leaking through the mouth (volume of 30 Hz air flow passing through the respiratory tract) in front of the neck, and calculating airway resistance mechanically. Measurement was carried out immediately prior to the first drug treatment (24 hours before elicitation), just prior to elicitation, 10 minutes, 1, 2, 4, 6, and 8 hours post-elicitation.
It was visually observed by a person carrying out said test in terms of the appearance of cyanosis or suffocative death (asthmatic death) due to respiratory obstruction.
Guinea pigs were sensitized with ovalbumin and asthma was induced on Day 7 after final sensitization in the same manner as in Example 18. The number of animals employed in the experiment was set to the extent there are at least 6 as individuals escaping asthmatic death (8 to 11 animals/group). In the same manner as in Example 18, the animals were measured for airway resistance mechanically and each percent change (%) in airway resistance was calculated (each value just prior to elicitation was set as 100%). Each percent amelioration in airway resistance was calculated from the percent changes in airway resistance according to the following formula: Amelioration in Airway Resistance (%) = 1 -[((Percent Change in Airway Resistance after Drug-Administration)-(Value just prior to Challenge (100)))/((Percent Change in Airway Resistance after Solvent -Administration)-(Value just prior to Challenge (100)))]× 100 [formula]
A solution of a test metalloproteinase inhibitor (Compound No. 22: 15 mg/kg or 30 mg/kg) in water for injection or the solvent alone as a negative control was administered to each animal subcutaneously twice, i.e., 24 hours and 2 hours prior to elicitation.
Series [4] is described as follows: Body weight gain in sensitized mice (experimental atopic dermatitis model). Type of series: in vivo. To be noted: painted on auricles twice a day; Compound No. 8 50 µg/ear/dose, prednisolone 5 µg/ear/dose; Days 1, 4 and 7; versus solvent control (ethanol). The method, then: Experimental atopic dermatitis model mice sensitized in the same manner as in Example 1 were examined for influence on body weight gains.
A solution of a test metalloproteinase inhibitor (Compound No. 8; 50 µg/ear/dose, twice a day) in ethanol or a solution of prednisolone (5 µg/ear/dose, twice a day) in ethanol was administered to mice (5 animals per group) by painting onto both sides of a pair of the auricles, not only one hour prior to elicitation but also 0.25, 3, 4, 5 and 6 days post-elicitation. Each mouse was measured for its body weight not only immediately before the start in painting but also on Days 1, 4 and 7 after the start in painting. Each gain in body weight was calculated and considered to indicate an effect on body weight changes affected by said treatments.

The mark [5] stands for this setting: Compound No. 22 15 mg/kg s.c., prednisolone 10 mg/kg orally.
[6] abbreviates: suffocative death due to cyanosis just after elicitation, Compound No. 8 15 mg/kg s.c., prednisolone 10 mg/kg orally, 24 and 2 hours prior to elicitation.

The structures appear in SMILES notation.

On to `CC(=O)O.CNC(=O)[C@H](Cc1ccc(CNC(C)=N)cc1)NC(=O)[C@H](CC(C)C)C(CCCc1ccccc1)C(=O)NO` (single isomer, unassigned) [Compound No. 10, N-[4-(N-hydroxyamino)-2(R)-isobutyl-3(R or S)-(3-phenyltrimethylene)succinyl]-L-4'-acetimidoyliminomethylenephenylalanine-N-methylamide 1 acetate], for which, in series [1] (auricle edema 1 hour post-elicitation, treatment 24 & 2 hours prior to DNFB-elicitation), the “% Inhibition IPR” value is 38.2%. Besides, in series [1] (auricle edema Day 1 post-elicitation, treatment 24 & 2 hours prior to DNFB-elicitation), the “% Inhibition LPR” value was found to be 39.2%. Also, the “% Inhibition vLPR” value in series [1] (auricle edema Day 7 post-elicitation, daily from 3 to 6 days after DNFB-elicitation) amounted to 44.7%. In series [2], the “Body Weight Gain, Day 5” value is given as 1.08± 0.39; the “Body Weight Gain, Day 7” value worked out at 1.62± 0.26; the “Body Weight Gain, Day 10” value is reported as 1.40± 0.30.

For the compound `CC(=O)O.CNC(=O)[C@H](Cc1ccc(NC(=N)N)cc1)NC(=O)[C@@H](CC(=O)NO)CC(C)C` [Compound No. 22, N-[4-(N-hydroxyamino)-2(R)-isobutylsuccinyl]-L-4'-guanidophenylalanine-N-methylamide 1 acetate], the “% Amelioration in Airway Resistance, 1 Hour” value in series [3] (1 hour after elicitation, Compound No. 22 15 mg/kg s.c., prednisolone 10 mg/kg orally) came out at 56.4%. In series [3] (6 hours after elicitation, Compound No. 22 15 mg/kg s.c., prednisolone 10 mg/kg orally), the “% Amelioration in Airway Resistance, 6 Hours” value was 102.2%. In addition, the “% Amelioration in Airway Resistance, Immediately after Elicitation” value in series [3] (Compound No. 22 15 mg/kg s.c., prednisolone 10 mg/kg orally, 24 and 2 hours prior to elicitation) amounted to 12.3%. In series [3] (after elicitation, s.c. administration), the cyanosis result is on record as “moderation in cyanosis is also observed”. Further, in series [3] (setting [5]), the “% Survival” value was 88.9%.

Consider `C[C@]12C=CC(=O)C=C1CC[C@@H]1[C@@H]2[C@@H](O)C[C@@]2(C)[C@H]1CC[C@]2(O)C(=O)CO` [Prednisolone, prednisolone, reference compound], for which, in series [2], the “Body Weight Gain, Day 5” value turned out to be 0.00± 0.26; the “Body Weight Gain, Day 7” value is 0.03± 0.57; the “Body Weight Gain, Day 10” value stood at 0.97± 0.47. Further, the “gain in body weight (FIG. 9)” value in series [4] is “below that in the solvent control group”. Further, the “% Survival” value in series [3] (setting [5]) is 75.0%. Besides, in series [3] (setting [6]), the “% Mortality” value was 22.2% and the “(Dead Animals)/(Tested Animals)” value was 2/9.

The values are drawn from patent EP1101496A1, “THERAPEUTIC AGENTS FOR ALLERGIC DISEASES” (FUJI YAKUHIN KOGYO KABUSHIKI KAISHA, priority 1998, dated 2000).
